Target: T1, CERT (Homo sapiens, UniProt Q9Y5P4)
T1 construct: made in house; host or cells: E. coli BL21 (DE3), pET-28a(+)
T1 sequence (Q9Y5P4 1-598 isoform Q9Y5P4-2): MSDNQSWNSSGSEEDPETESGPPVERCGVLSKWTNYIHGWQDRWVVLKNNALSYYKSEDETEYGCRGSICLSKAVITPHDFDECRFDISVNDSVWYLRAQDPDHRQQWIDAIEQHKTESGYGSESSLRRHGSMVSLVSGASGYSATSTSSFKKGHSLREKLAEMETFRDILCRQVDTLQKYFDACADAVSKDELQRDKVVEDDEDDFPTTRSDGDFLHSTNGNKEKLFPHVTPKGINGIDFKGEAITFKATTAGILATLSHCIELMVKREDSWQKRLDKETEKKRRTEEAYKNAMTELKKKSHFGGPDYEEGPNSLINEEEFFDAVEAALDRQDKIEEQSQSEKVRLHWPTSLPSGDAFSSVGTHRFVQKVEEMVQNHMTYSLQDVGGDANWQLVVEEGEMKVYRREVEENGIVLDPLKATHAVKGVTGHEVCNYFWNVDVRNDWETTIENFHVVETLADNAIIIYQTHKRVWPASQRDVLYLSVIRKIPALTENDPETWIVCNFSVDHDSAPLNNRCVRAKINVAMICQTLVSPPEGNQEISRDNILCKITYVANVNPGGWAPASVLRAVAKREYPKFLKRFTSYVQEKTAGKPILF
Assay: NR-ceramide fluorescence competition assay
Format: binding
Conditions: 1 μM Nile red ceramide
Source text: Having the identified hits from CERT-transfer assay, we were interested in further understanding the relationship between the CERT-transfer inhibitory activity and CERT-binding affinity. With this goal in mind, we have developed a homogenous competitive assay based on the binding of fluorescently-labeled ceramide to CERT-protein (Fig S6). It’s well known that Nile Red is […]
than in hydrophilic one. Based on this knowledge, we have designed a fluorescently-labeled probe in which the Nile Red-tag was incorporated into the ceramide fatty acid moiety. The NR-ceramide […]
excellent signal-to-noise ratio (28-fold, Fig S7.A). Equilibration takes ~1h of incubation at 30°C.
Furthermore, this assay is a simple mix-and read format and uses only low amounts of fluorophore (1µM) and CERT-protein (12.5µg/assay).
The assay was performed in non-binding black-bottom 96-well microplate (Greiner Bio-One). To each well was added 1µL HPA12 (final concentration 2.5µM) or DMSO, followed by 98 µL of the CERT aliquot (12.5µg/well). After the mixture was incubated for 40 min at 30°C, 1µL NR-ceramide (final concentration 1µM) was added. Controls were triplicates of 10mM Tris.HCl buffer (pH 7.4, 250 mM sucrose) with 2µL DMSO, CERT aliquot (12.5µg/well) with 2µL DMSO, and 1µL NR-ceramide (final concentration 1µM) in 10mM Tris.HCl buffer (pH 7.4, 250 mM sucrose) with 1µL DMSO. The plate was then sealed with transparent Thermowell seal tape and placed in the microplate reader (LABTECH) at 30°C with shaking. The fluorescence was measured from the top over 80min (number of cycles 35, delay 70 sec) with excitation filter 540 nm and emission filter 640 nm. The competitive CERT-binding activity was calculated using the formula: Ix = I(À2-Y)/I0(À1-X), where À1 is the average of the florescence of the control of NR-ceramide in Tris.HCl buffer, X is the average of the fluorescence of the buffer alone, À2 is the fluorescence average of the assay mixture, Y is the fluorescence average of the CERT aliquot with inhibitor/DMSO (Fig […]
It is however lower than the differentiation in the transfer assay (Fig S8B).
3.2 High throughput screening for CERT-activity and Data analysis
In order to validate the performance of developed assay in high-throughput screening format, the hits from ‘confirmed-hit group’ (45 hits) were screened for their competitive CERT-binding activity. The assay was performed as mentioned in the previous sub-section 3.1. Briefly, 1µL tested compound (final concentration 1µM, 2.5µM, 5µM, 10µM) or DMSO for control, and 98 µL CERT stock solution were sequentially added into a non-binding 96-well microplate. The plate was sealed and incubated at 30°C for 40 min, before 1µL NR-ceramide (final concentration 1µM) was added.
Controls per plate were triplicates of 10mM Tris.HCl buffer (pH 7.4, 250 mM sucrose) with 2µL DMSO, CERT aliquot (12.5µg/well) with 2µL DMSO, 1µL NR-ceramide (final concentration 1µM) in 10mM Tris.HCl buffer (pH 7.4, 250 mM sucrose), and HPA12 as a reference inhibitor (final concentration of 1µM, and 2.5µM, 5µM). The plate was sealed with transparent Thermowell seal tape and the assay was allowed to proceed as described above using excitation filter 540 nm and emission filter 640 nm. The competitive CERT-binding activity was calculated using the formula: Ix = I(À2-Y)/I0(À1-X), where À1 is the average of the florescence of the control 1µL NR-ceramide in Tris.HCl buffer, X is the average of the fluorescence of the buffer alone, À2 is the average of the fluorescence of assay mixture treated with tested compound or DMSO, Y is the average of the fluorescence of CERT aliquot with inhibitor/DMSO.

For CCCCCCCCCCCC(=O)NC(CO)CC(O)c1ccccc1 (single isomer, unassigned) [R,R diastereomer of HPA‐12, N-(3Hydroxy-1-hydroxymethyl-3-phenylpropyl)-dodecamide], the “activity in the NR ceramide competition assay” value was “much less pronounced”.

Source: article PMC7756341, “Liposomal FRET Assay Identifies Potent Drug‐Like Inhibitors of the Ceramide Transport Protein (CERT)” (Chemistry (Weinheim an Der Bergstrasse, Germany), 2020)
